According to patent publication US11787766B2, “Compound having PD-L1 inhibitory activity, preparation method therefor and use thereof” (SHANGHAI ENNOVABIO PHARMACEUTICALS CO., LTD., priority 2017, dated 2023):

Target: PD-L1 (Homo sapiens (Human), UniProt Q9NZQ7)
Experiment: PD-1/PD-L1 homogeneous time-resolved fluorescence (HTRF) binding assay
Details: Cisbio PD1/PD-L1 binding assay kit
Source text: PD-1/PD-L1 homogeneous time-resolved fluorescence (HTRF) detection technology was used to detect the binding ability of the compound to PD-L1.
PD1/PD-L1 binding assay kit (Cisbio, Cat #63ADK000CPDEC) was used, which includes two proteins, Tag 1-PD-L1 and Tag 2-PD-1, and two antibodies, Anti-Tag1-Eu^3+ and Anti-Tag2-XL 665. Assay principle: Anti-tag1-Eu^3+ is the HTRF donor, and Anti-Tag2-XL 665 is the HTRF acceptor. When Tag 1-PD-L1 and Tag 2-PD-1 interact, the added HTRF donor and the acceptor are close to each other. After the donor receives the excitation energy, it transfers part of the energy to the acceptor, thus producing 665 nm emission signal. When the compound is added to block the PD1/PD-L1 interaction, only 620 nm emission light was detected. The inhibitory effect of the compound was determined by analyzing the ratio of 665 nm/620 nm. Tag 1-PD-L1 was diluted with Diluent buffer (cat #62DLBDDF) to a working concentration of 10 nM, Tag 2-PD-1 was diluted with Diluent buffer to a working concentration of 500 nM, and Anti-Tag1-Eu^3+ was diluted with detection buffer (cat #62DB1FDG) by 1:100, Anti-Tag2-XL 665 was diluted with detection buffer by 1:20, and the test compound was diluted with Diluent buffer to a final concentration of 2×. In a 384-well plate, 2 μL of compound was added to each well, and then 4 μL of Tag 1-PD-L1, 4 μL of Tag 2-PD-1 were added and incubated at room temperature for 15 minutes. 5 μL Anti-Tag1-Eu^3+ and 5 μL Anti-Tag2-XL 665 were added and incubated overnight at room temperature, and detected with BioTek Synergy™ Neo2 Multifunctional Microplate Reader to obtain the ratio of 665 nm/620 nm. The IC50 curve was fitted by GraphPad Prism 5.02.

Sequence of PD-L1 (Q9NZQ7 19-238): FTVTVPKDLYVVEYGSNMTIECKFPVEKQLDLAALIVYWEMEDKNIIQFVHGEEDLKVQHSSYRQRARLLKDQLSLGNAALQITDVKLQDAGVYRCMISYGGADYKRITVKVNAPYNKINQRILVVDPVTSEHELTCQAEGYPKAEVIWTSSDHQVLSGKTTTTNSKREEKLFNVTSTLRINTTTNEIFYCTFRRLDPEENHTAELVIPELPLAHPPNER

IC50 [nM] | Compound
< 10 | COc1nc(OCc2cccc(-c3cccc(COc4ccc(CNC(CO)CO)c(OC)n4)c3Cl)c2Cl)ccc1CNC(CO)CO [Compound 68]
< 10 | COc1nc(OCc2cccc(-c3cccc(COc4ccc(CNCC(N)=O)c(OC)n4)c3Cl)c2Cl)ccc1CNCC(N)=O [Compound 73]
< 10 | COc1nc(OCc2cccc(-c3cccc(COc4ccc(CN5CC(NC(C)=O)C5)c(OC)n4)c3Cl)c2Cl)ccc1CN1CC(NC(C)=O)C1 [Compound 74]
< 10 | COc1nc(OCc2cccc(-c3cccc(COc4ccc(CNCc5nnn[nH]5)c(OC)n4)c3Cl)c2Cl)ccc1CNCc1nnn[nH]1 [Compound 75]
< 10 | COc1nc(OCc2cccc(-c3cccc(COc4ccc(CN5CC(CC(N)=O)C5)c(OC)n4)c3Cl)c2Cl)ccc1CN1CC(CC(N)=O)C1 [Compound 76]
< 10 | CNC(=O)CNCc1ccc(OCc2cccc(-c3cccc(COc4ccc(CNCC(=O)NC)c(OC)n4)c3Cl)c2Cl)nc1OC [Compound 77]
< 10 | COc1nc(OCc2cccc(-c3cccc(COc4ccc(CNCCS(N)(=O)=O)c(OC)n4)c3Cl)c2Cl)ccc1CNCCS(N)(=O)=O [Compound 78]
10 to 100 | CNS(=O)(=O)CCNCc1ccc(OCc2cccc(-c3cccc(COc4ccc(CNCCS(=O)(=O)NC)c(OC)n4)c3Cl)c2Cl)nc1OC [Compound 80]
10 to 100 | COc1nc(OCc2cccc(-c3cccc(COc4ccc(CNCC(N)C(F)(F)F)c(OC)n4)c3Cl)c2Cl)ccc1CNCC(N)C(F)(F)F (centres unmarked) [Compound 82]

Second part, the compound before the results:

Compound | IC50 [nM]
COc1nc(OCc2cccc(-c3cccc(COc4ccc(CN5CCC(CC#N)CC5)c(OC)n4)c3C)c2C)ccc1CN1CCC(CC#N)CC1 [Compound 59] | 10 to 100
COc1nc(OCc2cccc(-c3cccc(COc4ccc(CN5CCC6(CCC(=O)N6)C5)c(OC)n4)c3C)c2C)ccc1CN1CCC2(CCC(=O)N2)C1 (centres unmarked) [Compound 60] | < 10
COc1nc(OCc2cccc(-c3cccc(COc4ccc(CN5CC(CC#N)C5)c(OC)n4)c3C)c2C)ccc1CN1CC(CC#N)C1 [Compound 61] | 10 to 100
COc1nc(OCc2cccc(-c3cccc(COc4ccc(CN5CC[C@H](O)C5)c(OC)n4)c3Cl)c2Cl)ccc1CN1CC[C@H](O)C1 [Compound 62] | < 10
COc1nc(OCc2cccc(-c3cccc(COc4ccc(CN5CC(C(N)=O)C5)c(OC)n4)c3C)c2C)ccc1CN1CC(C(N)=O)C1 [Compound 63] | < 10
COc1nc(OCc2cccc(-c3cccc(COc4ccc(CNC5CCOC5=O)c(OC)n4)c3C)c2C)ccc1CNC1CCOC1=O (centres unmarked) [Compound 64] | 10 to 100
COc1nc(OCc2cccc(-c3cccc(COc4ccc(CN5CC(O)C(CC#N)C5)c(OC)n4)c3C)c2C)ccc1CN1CC(O)C(CC#N)C1 (centres unmarked) [Compound 65] | < 10
COc1nc(OCc2cccc(-c3cccc(COc4ccc(CN5C[C@@H](O)C[C@H]5C(=O)O)c(OC)n4)c3F)c2C)ccc1CN1C[C@@H](O)C[C@H]1C(=O)O [Compound 66] | < 10
COc1nc(OCc2cccc(-c3cccc(COc4ccc(CNC(CCO)C(=O)O)c(OC)n4)c3C)c2C)ccc1CNC(CCO)C(=O)O (centres unmarked) [Compound 67] | < 10
COc1nc(OCc2cccc(-c3cccc(COc4ccc(CN5CCCCC5C(=O)O)c(OC)n4)c3Cl)c2Cl)ccc1CN1CCCCC1C(=O)O (centres unmarked) [Compound 70] | < 10
COc1nc(OCc2cccc(-c3cccc(COc4ccc(CN5C[C@H](O)[C@@H](O)C5)c(OC)n4)c3Cl)c2Cl)ccc1CN1C[C@H](O)[C@@H](O)C1 [Compound 71] | < 10
COc1nc(OCc2cccc(-c3cccc(COc4ccc(CN(CCO)CCO)c(OC)n4)c3Cl)c2Cl)ccc1CN(CCO)CCO [Compound 72] | < 10
COc1nc(OCc2cccc(-c3cccc(COc4ccc(CN5C[C@@H](F)C[C@H]5C(=O)O)c(OC)n4)c3Cl)c2Cl)ccc1CN1C[C@@H](F)C[C@H]1C(=O)O [Compound 79] | < 10
COc1nc(OCc2cccc(-c3cccc(COc4ccc(CN5C[C@@H](F)C[C@H]5C(=O)O)c(OC)n4)c3Cl)c2Cl)ccc1CN1CCC(C(F)F)C1 (some centres unmarked) [Compound 81] | < 10
